Test results from US9498446B2, “Pharmaceutical compositions resistant to abuse” (Egalet Ltd., priority 2009, dated 2016).
Where “and” joins values, the source holds several entries; their conditions need not be identical. Identical values can stand only once.

Test: Dissolution test of naltrexone from intact and ground tablets
Assay type: physicochemical
Procedure: Polylactid acid was injection moulded in a Haake Minijet (Haake MiniJet II, Thermo Electron, Karlsruhe, Germany) as described in Methods. An inner core filled with approximately 25 mg Naltrexone hydrochloride was prepared and closed in both ends with the above mentioned shell composition. The inner core has a size of 8 mm×4.26 mm×2.49 mm. The inner core was placed in the cavity of a larger shell 2 (H: 20 mm; L: 6 mm; B: 6 mm) with the same shell composition and the large shell was filled with placebo matrix composition as described in Methods.
Dissolution tests of naltrexone were performed in accordance to USP 30, NF 25, (711). Apparatus 2 (paddle method). The dissolution medium consisted of phosphate buffer solution pH 6.8. The volume of the dissolution medium was 500 ml and the rotation speed of the paddles was 50 rpm throughout the dissolution rum. The temperature was 37° C. Samples were withdrawn at suitable time intervals and analysed for content of active drug substance by means of HPLC UV detection. Intact tablets n=2 and tablets milled in a Coffee Grinder, Krups GVX242 (n=2) were analyse in dissolution.
The amount of naltrexone was determined by a modified USP method. The technique was reverse phase chromatography, using a Supelco Ascentis Express C18 2.7 μm 4.6*100 mm column. The mobile phase consisted of 1.08 g sodium 1-octanesulphonate, 23.8 g sodium acetate, 1 ml triethylamine, 450 ml methanol and approximately 550 ml water. The HPLC settings were as follows: Isocratic, column temperature 30° C. flow 0.6 ml/min, detection HPLC-UV at 280 nm, injection volume 20 μl with a 6 minutes run time.

Which results are given for `O=C1CC[C@@]2(O)[C@H]3Cc4ccc(O)c5c4[C@@]2(CCN3CC2CC2)[C@H]1O5` [Naltrexone]?
Amount of naltrexone found in dissolution medium (Ground tablet (Coffee Grinder, Krups GVX242), 0.2 hours, phosphate buffer pH 6.8, 100% = 25 mg): 34.1% and 31.5%; Amount of naltrexone found in dissolution medium (Ground tablet, 0.5 hours): 36.3% and 34.2%; Amount of naltrexone found in dissolution medium (Ground tablet, 0.8 hours): 36.6% and 34.7%; Amount of naltrexone found in dissolution medium (Ground tablet, 1.5 hours): 37.4% and 34.9%; Amount of naltrexone found in dissolution medium (Ground tablet, 20 hours): 39.0% and 37.1%; Amount of naltrexone found in dissolution medium (Ground tablet, 30 hours): 34.9% and 35.9%
